Laboratory results: EP0163240A2, “Dihydroimidazo[1,2-a]pyrimidine derivatives, methods of preparing said compounds and pharmaceutical compositions constaining said compounds” (priority 1984, dated 1985)
pIC50: −log10 of the molar value. Counter-ions that a name gives are not always drawn. Like-named read-outs stand apart in the source and are kept apart here.

How the values were obtained:
coronary blood flow = assay: Effect on coronary blood flow; format: in vivo, Adult mongrel dogs; settings: for ED50: dose required to increase the coronary blood flow by a half of the effects of nifedipine, injected into the coronary artery, anesthetized dogs; for T 1/2: half-life measured as the duration of effects on coronary blood flow
Method: Pharmacological experiment 2: Effect on coronary blood flow Adult mongrel dogs were anesthetized with sodium pentobarbital (30 mg/kg, i.v.). According to the method of Yago et al described in Folia Pharmacol. Japon, vol. 57, 380 (1961), the left coronary artery was perfused and its blood flow was measured. […] The half-life (T 1/2, minute) was measured as the duration of effects.

Trachea of guinea pig = assay: Anticholinergic activity (ACh-contracted tracheal strip chain preparation); settings: for pIC50: Cavia porcellus, read-out: 50% inhibitory concentration (IC50) on ACh-induced contraction; for relaxant effect on ACh-contracted preparation: 10^-7-10^-5M
Method: (§1) Each of 30 mg/kg of test compounds A and Q was orally administered to five male spontaneously hypertensive rats and the blood pressure was measured by the tail cuff method. The blood pressure lowering value after 1 hour administration of test compound A was 48 mmHg and that value after 5 hours administration of test compound Q was 64 mmHg. Pharmacological experiment 6: Anticholinergic activity
Trachea of guinea pig, weighing 380-550 g, was isolated and prepared its strip chain preparation. The preparation was mounted in organ bath filled with Krebs-Henseleit solution gassed with 95% 02 and 5% CO2. Length of the preparation was measured by isometric transducer (MEC, ME-4012). The preparation was contracted by 10^-6 M of acetylcholine (ACh) and then, test compounds were added cumulatively into the bath to observe relaxant effect.
(§2) Pharmacological experiment 7: Toxicity

vertebral blood flow = assay: Effect on vertebral blood flow; format: in vivo, Adult mongrel dogs; settings: for ED100: dose required to obtain 100% of the increase of blood flow by 100 µg of papaverine hydrochloride, injected in the vertebral artery, anesthetized dogs; for T 1/2: half-life measured as the duration of effects on vertebral blood flow
Method: Pharmacological experiment 3: Effect on vertebral blood flow Adult mongrel dogs were anesthetized with sodium pentobarbital (25 mg/kg, i.v.). The right vertebral artery was perfused and the blood flow was measured. Test compound was injected in the vertebral artery. […] Half-life (T 1/2, minute) was measured as the duration of effects.

[1] = test system: spontaneously hypertensive rats; assay: Effect on hypertension (tail cuff method); format: in vivo, male spontaneously hypertensive rats; settings: 30 mg/kg orally
Method: Pharmacological experiment 5: Effect on hypertension
as §1

ddY strain mice = format: in vivo
Excerpt: as §2
Test compounds A, B, C, E and S were orally administered to five ddY strain mice.

liver mitochondria = assay: Effect on lipid peroxidation (malondialdehyde formation in liver mitochondria, thiobarbituric acid method); format: biochemical, Male Sprague-Dawley rats; settings: 50% inhibitory concentration on the formation of malondialdehyde; ascorbic acid, ferrous sulfate; 25°C for 30 minutes
Method: Pharmacological experiment 4: Effect on lipid peroxidation
Male Sprague-Dawley rats weighing 300-350 g were used. According to the method of Shimada et al described in Biochim. Biophys. Acta, vol. 572, 531 (1979), the liver mitochondria were isolated and ascorbic acid, ferrous sulfate, potassium chloride and Tris-HC1 buffer were added. To the solution was added test compound dissolved in dimethyl sulfoxide, and the mixture was incubated at 25°C for 30 minutes. The amount of malondialdehyde was determined by the thiobarbituric acid method and the 50% inhibitory concentration (IC50, µmol) of test compound on the formation of malondialdehyde was measured.

[2] = preparation contracted by 10^-6 M of acetylcholine (ACh), cumulative addition
[3] = oral dose of 1000 mg/kg, five mice

Structure (SMILES)	ED50 (coronary blood flow) [µg]	T 1/2 (coronary blood flow) [min]	ED100 (vertebral blood flow) [µg]	T 1/2 (vertebral blood flow) [min]	pIC50 (liver mitochondria)	further results
CCN(CC)Cc1cnc2n1C(c1cccc([N+](=O)[O-])c1)C(C(=O)OCCOC)=C(C)N2 (centres unmarked) [Compound J, 2-Methoxyethyl 3-diethylaminomethyl-7-methyl-5-(3-nitrophenyl)-5,8-dihydroimidazo[1,2-a]pyrimidine-6-carboxylate]	5	1.7	–	–	–	–
CCOC(=O)C1=C(C)Nc2ncc(CN(CC)CC)n2C1c1ccccc1[N+](=O)[O-].Cl.Cl.O (centres unmarked) [Compound I, Ethyl 3-diethylaminomethyl-7-methyl-5-(2-nitrophenyl)-5,8-dihydroimidazo[1,2-a]pyrimidine-6-carboxylate dihydrochloride monohydrate]	10	2.0	–	–	–	–
COC(=O)C1=C(C)Nc2ncc(CN3CCCC3)n2C1c1cccc([N+](=O)[O-])c1 (centres unmarked) [Compound P, Methyl 7-methyl-5-(3-nitrophenyl)-3-(1-pyrrolidinylmethyl)-5,8-dihydroimidazo[1,2-a] pyrimidine-6-carboxylate dihydrochloride]	–	–	6	0.6	–	pIC50 (Trachea of guinea pig; [2]): 5.64
CCN(CC)Cc1cnc2n1C(c1cccc([N+](=O)[O-])c1)C(C(=O)OC(CN1CCCCC1)c1ccccc1)=C(C)N2 (single isomer, unassigned) [Compound Q, 2-Piperidino-1-phenylethyl 3-diethylaminomethyl-7-methyl-5-(3-nitrophenyl)-5,8-dihydroimidazo [1,2-a]pyrimidine-6-carboxylate (β-form)]	–	–	18	4.0	–	blood pressure lowering value ([1]; after 5 hours): 64 mmHg
CCOC(=O)C1=C(C)Nc2ncc(CN(CC)CC)n2C1c1cccc([N+](=O)[O-])c1 (centres unmarked) [Compound B, Ethyl 3-diethylaminomethyl-7-methyl-5-(3-nitrophenyl)-5,8-dihydroimidazo[l,2-a]pyrimidine-6-carboxylate hydrochloride]	3	1.5	10	0.8	4.70	survival (ddY strain mice; mouse, in vivo, po, 1000 mg/kg): All mice were survived; relaxant effect on ACh-contracted preparation (Trachea of guinea pig): relaxed ACh-contracted preparation in a concentration-dependent manner; pIC50 (Trachea of guinea pig; [2]): 5.40
CN1[C@@H]2CC[C@H]1C[C@@H](OC(=O)C(CO)c1ccccc1)C2 (some centres unmarked) [atropine, reference compound]	–	–	–	–	–	pIC50 (Trachea of guinea pig): 9.13
CCCN(CCC)Cc1cnc2n1C(c1cccc([N+](=O)[O-])c1)C(C(=O)OC)=C(C)N2 (centres unmarked) [Compound H, Methyl 3-dipropylaminomethyl-7-methyl-5-(3-nitrophenyl)-5,8-dihydroimidazo[1,2-a]pyrimidine-6-carboxylate]	7	1.0	2	1.0	–	–
CCCCNCc1cnc2n1C(c1cccc([N+](=O)[O-])c1)C(C(=O)OCC)=C(C)N2.Cl.Cl (centres unmarked) [Compound O, Ethyl 3-butylaminomethyl-7-methyl-5-(3-nitrophenyl)-5,8-dihydroimidazo[1,2-a]pyrimidine-6-carboxylate dihydrochloride]	–	–	15	0.7	–	–
CCOC(=O)C1=C(C)Nc2ncc(CN(C)Cc3ccccc3)n2C1c1cccc([N+](=O)[O-])c1.Cl.Cl.O (centres unmarked) [Compound C, Ethyl 3-(N-benzyl-N-methylamino)methyl-7-methyl-5-(3-nitrophenyl)-5,8-dihydroimidazo[1,2-a] pyrimidine-6-carboxylate dihydrochloride monohydrate]	10	1.5	5	1.5	–	survival (ddY strain mice; mouse, in vivo, po, 1000 mg/kg): All mice were survived
CCOC(=O)C1=C(C)Nc2ncc(N(C)Cc3ccccc3)n2C1c1cccc([N+](=O)[O-])c1 (centres unmarked) [Compound R, Ethyl 7-methyl-5-(3-nitrophenyl)-3-(N-benzyl-N-methyl)amino-5,8-dihydroimidazo[1,2-a]pyrimidine-6-carboxylate]	–	–	–	–	6.15	–
CCN(CC)Cc1cnc2n1C(c1cccc([N+](=O)[O-])c1)C(C(=O)OC)=C(C)N2 (centres unmarked) [Compound A, Methyl 3-diethylaminomethyl-7-methyl-5-(3-nitrophenyl)-5,8-dihydroimidazo[l,2-a]pyrimidine-6-carboxylate hydrochloride]	2	1.0	2	0.9	4.30	survival (ddY strain mice; mouse, in vivo, po, 1000 mg/kg): All mice were survived; relaxant effect on ACh-contracted preparation (Trachea of guinea pig): relaxed ACh-contracted preparation in a concentration-dependent manner; pIC50 (Trachea of guinea pig; [2]): 5.80; blood pressure lowering value ([1]; after 1 hour): 48 mmHg
CCN(CC)Cc1cnc2n1C(c1ccccc1C(F)(F)F)C(C(=O)OC)=C(C)N2 (centres unmarked) [Compound E, Methyl 3-diethylaminomethyl-7-methyl-5-(2-trifluoromethylphenyl)-5,8-dihydroimidazo[1,2-a] pyrimidine-6-carboxylate]	5	1.0	–	–	4.82	survival (ddY strain mice; [3]): All mice were survived
COC(=O)C1=C(C)Nc2ncc(COC(C)C)n2C1c1cccc([N+](=O)[O-])c1 (centres unmarked) [Compound L, Methyl 3-isopropoxymethyl-7-methyl-5-(3-nitrophenyl)-5,8-dihydroimidazo[1,2-a]pyrimidine-6-carboxylate]	5	1.0	–	–	–	–
CCOC(=O)C1=C(C)Nc2ncc(N(CC)CC)n2C1c1cccc([N+](=O)[O-])c1 (centres unmarked) [Compound F, Ethyl 3-diethylamino-7-methyl-5-(3-nitrophenyl)-5,8-dihydroimidazo[1,2-a]pyrimidine-6-carboxylate]	12	1.0	–	–	5.70	–
CCOC(=O)C1=C(C)Nc2ncc(N3CCCC3)n2C1c1cccc([N+](=O)[O-])c1 (stereo not drawn) [Compound D, Ethyl 7-methyl-5-(3-nitrophenyl)-3-(l-pyrrolidinyl)-5,8-dihydroimidazo[1,2-a]pyrimidine-6-carboxylate]	8	1.3	–	–	6.70	–
COC(=O)C1=C(C)Nc2ncc(CN(C(C)C)C(C)C)n2C1c1cccc([N+](=O)[O-])c1 (centres unmarked) [Compound K, Methyl 3-diisopropylaminomethyl-7-methyl-5-(3-nitrophenyl)-5,8-dihydroimidazo[1,2-a]pyrimidine-6-carboxylate]	6	1.5	–	–	–	–
CCOC(=O)C1=C(C)Nc2ncc([N+](=O)[O-])n2C1c1ccccc1C(F)(F)F (centres unmarked) [Compound M, Ethyl 7-methyl-3-nitro-5-(2-trifluoromethylphenyl)-5,8-dihydroimidazo[1,2-a]pyrimidine-6-carboxylate]	5	1.0	–	–	–	–
CCOCc1cnc2n1C(c1cccc([N+](=O)[O-])c1)C(C(=O)OCC)=C(C)N2 (centres unmarked) [Compound G, Ethyl 3-ethoxymethyl-7-methyl-5-(3-nitrophenyl)-5,8-dihydroimidazo[1,2-a]pyrimidine-6-carboxylate]	7	1.0	–	–	5.00	–
COC(=O)C1=C(C)Nc2ncc(CNc3ccccc3C(F)(F)F)n2C1c1cccc([N+](=O)[O-])c1 (centres unmarked) [Compound S, Methyl 7-methyl-5-(3-nitrophenyl)-3-(2-trifluoromethylphenyl)aminomethyl-5,8-dihydroimidazo[1,2-a]pyrimidine-6-carboxylate]	–	–	–	–	–	survival (ddY strain mice; [3]): All mice were survived
CCOC(=O)C1=C(C)Nc2ncc(CNCc3ccccc3)n2C1c1cccc([N+](=O)[O-])c1.Cl.Cl (centres unmarked) [Compound N, Ethyl 3-benzylaminomethyl-7-methyl-5-(3-nitrophenyl)-5,8-dihydroimidazo[1,2-a]pyrimidine-6-carboxylate dihydrochloride]	–	–	10	0.7	–	–
